We go through 4 substances from EP0559845B1, “Use of compounds in preventing endotoxin shock” (priority 1991, dated 1992).

Test [1] relates to GTPase activity in membranes isolated from a macrophage (RAW 264.7) cell line. Put plainly: GTPase assay, basal activity and single agonists. The test is classed as biochemical. The source says: (§1) We sought to directly evaluate the influence of LPS on possible G-protein function by examining agonist-enhanced GTPase activity, which is a hallmark of G-protein action. Moreover, because macrophages are one of the key cell types in the release of toxic mediators following an LPS challenge, we first assessed the capacity of LPS to influence GTPase activity in membranes isolated from RAW 264.7 cells, which is a highly LPS-responsive macrophage cell line. In these studies, GTPase activity was measured using a standard assay. The activity was determined using 2 µM γ-^32P-GTP in the presence of 0.1 mM ATP and 0.2 mM of the non-hydrolyzable ATP analog, AMPPNP, in order to minimize nonspecific nucleotidase activity in the membrane preparations. In the preferred practice of the present invention, the ability of a candidate compound to inhibit LPS-induced GTPase is assessed by measuring the release of ^32Pi from γ-^32P-GTP.
We first determined the optimal LPS concentration for GTPase stimulation. In all experiments, the LPS dose response curve was quite steep, and with the highest activity occurring around 200-300 µg LPS/ml.
Under these conditions, GTPase activation was evident at 100 µg LPS/ml (roughly 6 µM assuming an average MW ∼ 17,000 kDa), and the maximal effect was seen by 300 µg/ml LPS. (2) To show adenosine mucleotide synergism with LPS-stimulated GTPase activity, either 10µM ATP or 30µM ADP replace the 0.1 mM ATP and 0.2 mM AMPPNP of the standard assay described by Cassel et al. and Neer et al.
Because the above inhibitor studies indicated a maximum LPS-stimulated GTPase activity in the presence of ATP and ATP analogs, we investigated this interaction by measuring the ATP-dependence of the GTPase activity in macrophage membranes in the presence and absence of an optimal dose of LPS. […] This stimulation by ATP may be due to the action of purinergic receptors, i.e., the adenosine and ATP receptors which are well-characterized to be coupled to various G-proteins.
To assess whether the LPS/ATP-enhanced GTPase is a "low Km" form, which would be expected for a variety of large and small MW G-proteins, as well as for various GAP and ARF-like proteins, as opposed to a "high Km" form, such as a phosphatase, we assayed the GTPase activity using 0.2 and 50 µM GTP essentially as described previously. […] The LPS and ATP stimulated a low Km GTPase activity by ∼30% and 70%, respectively, when added individually. This stimulation of low Km activity was slightly greater than that estimated using the standard assay conditions. […] The LPS stimulation of GTPase activity is enhanced by adenine nucleotides.

Test [2] relates to LPS-induced GTPase activity in membranes isolated from RAW 264.7 cells. As to the kind of experiment: GTPase assay: effect of compounds on LPS-stimulated GTPase activity in macrophage membranes (release of 32Pi from γ-32P-GTP). Format: biochemical.
Description: as §1, with “preparations.” for “preparations. In the preferred practice of the present invention, the ability of a candidate compound to inhibit LPS-induced GTPase is assessed by measuring the release of ^32Pi from γ-^32P-GTP.”
The reaction is initiated by the addition of the γ-^32P-GTP and the mixture incubated at 30-37°C for 15 to 30 minutes. The reaction is terminated by the addition of 500µl of 5% trichloroacetic acid and 500µl of 0.1gm/ml acid-activated charcoal in 5% trichloroacetic acid. The samples are centrifuged at 14,000xg for 10 minutes, and a 550µl aliquot of the supernatant is removed for scintillation counting. The supernatant will contain the released ^32Pi. The extent of GTPase inhibition is measured by the decrease in the amount of ^32Pi released from γ-^32P-GTP. Appropriate controls include mixtures with one of the following omitted: (i) test compound, (ii) endotoxin, and (iii) ATP, ADP or AMPPNP.
The membranes are resuspended in 20 mM HEPES (pH 7.4), 1 mM dithiothreitol, 1 mM EDTA and 10 µg leupeptin/ml. Aliquots are stored at -70°C until assayed.

The subject of test [3] is TNFα production by RAW264.7 macrophages. As to the kind of experiment: LPS-mediated TNF production by macrophages, measured by cell viability assay on actinomycin D-sensitized L929 cells. The following applies: RAW264.7 cells treated with 2-MeSATP (0-5µM), LPS and ATP. Format: cell-based. How it is done: Moreover, 2-MeSATP decreased LPS-mediated TNFα production by RAW264.7 macrophages. Production of TNF by the macrophage cells was measured by a "cell viability" assay. This is a standard assay described in Birkland, et al., Adv. Exp. Med. Biol. 256: 399-402 (1990). In brief, TNF in solution will kill actinomycin D-sensitized L929 cells, which can be measured by a loss of MTT dye reduction. The supernatent was removed from RAW264.7 cells treated with 2-MeSATP, LPS and ATP. The greater the amount of 2-MeSATP added (0-5µM), the less TNF was produced by the macrophage cells.

As to phosphatidic acid, in test [1], the “effect on basal GTPase activity” value was “did not stimulate”.
On the same count and under the same terms, in the case of phosphatidylserine it was “did not stimulate”.
Turning to 2-methylthio-ATP [2-MeSATP], the “inhibition of LPS-stimulated GTPase activity” value in test [2] was “blocks”. Besides, in test [2], the “stimulation (potentiation) of LPS-stimulated GTPase activity” value is “no stimulatory effect”. Also, the “antagonism of the stimulatory effects of ATP on LPS-inducible GTPase activity” value in test [2] (2-MeSATP 0-100µM) is reported as “did antagonize”. Further, the “relative abilities of purines to stimulate LPS-enhanced GTPase” value in test [2] (dose-response studies, rank order) was “ATP> ATPγS> ADP> AMPPNP>> β,γ methylene ATP> 2-MeSATP”. The “LPS-mediated TNFα production” value in test [3] is recorded as “decreased”; in test [3] (listed as 2-methylthio-ATP), “blocks”.
In the case of phosphatidylcholine, the “effect on basal GTPase activity” value in test [1] is “did not stimulate”.
